Data reported in patent publication US9333265B2, “Organic-inorganic hybrid composite of polymerized nitroxide compound and inorganic particles” (UNIVERSITY OF TSUKUBA, priority 2012, dated 2016).

Columns and labels:
[1] = high-dosage administration; cited from earlier work
[2] = Blood uptake suppression after intraperitoneal administration (ESR signal in blood); type: in vivo
Text: Normally, low-molecular-weight compounds are taken up into the blood after intraperitoneal administration, and are at risk of dispersing throughout the body.

SMILES: CC1(C)CCCC(C)(C)N1[O] [TEMPO]
- side-effects [1]: reduced blood pressure and inhibition of the mitochondrial energy-transfer system
- presence in blood after intraperitoneal administration (ESR signal) [2]: present in blood for an hour or more
